In the CheMixHub viscosity set:
Where “and” joins values, the source holds several entries; their conditions need not be identical. Equal entries are not always repeated.

What was measured:
[1] = xn = mol fraction of the nth substance listed

CC(=O)O
Details | viscosity
293.15 K, 101.32 kPa | 1.226 mPa·s
293.15 K, 101.33 kPa | 1.226 mPa·s and 1.222 mPa·s
298.15 K, 101.3 kPa | 1.155 mPa·s and 1.27 mPa·s
303.15 K, 100 kPa | 0.982 mPa·s
303.15 K, 101.33 kPa | 1.346 mPa·s and 0.98 mPa·s
308.15 K, 101.3 kPa | 1.08 mPa·s
308.15 K, 101.32 kPa | 0.9795 mPa·s
313.15 K, 101.3 kPa | 0.931 mPa·s
318.15 K, 101.32 kPa | 0.8536 mPa·s
323.15 K, 101.3 kPa | 0.823 mPa·s and 0.883 mPa·s

CCC(=O)N(CC)CC
Details | viscosity [mPa·s]
298.16 K, 101 kPa | 1.241

CC1CCCC(C)C1=O (stereo unspecified)
100 kPa
Details | viscosity [mPa·s]
303.15 K | 3.709
308.15 K | 3.237
313.15 K | 2.765

CCCCCCCC[n+]1ccccc1.F[B-](F)(F)F
101.3 kPa
Details | viscosity [mPa·s]
293.15 K | 319.7
298.15 K | 233.5
303.15 K | 171.9
308.15 K | 134.8
313.15 K | 105.7
318.15 K | 81.56
323.15 K | 64.89

CCOC=O
viscosity
Details | 293.15 K | 298.15 K | 303.15 K | 308.15 K | 313.15 K | 318.15 K | 323.15 K
100 kPa | – | 0.38 mPa·s and 0.38 mPa·s | 0.36 mPa·s and 0.36 mPa·s | – | 0.328 mPa·s | 0.31 mPa·s and 0.31 mPa·s | 0.29 mPa·s and 0.29 mPa·s
101 kPa | 0.418 mPa·s | 0.3972 mPa·s | 0.378 mPa·s | 0.361 mPa·s | – | – | 0.308 mPa·s
101.33 kPa | – | 0.379 mPa·s | – | – | – | – | –

C1CCCCCC1
Details | viscosity [mPa·s]
303.15 K, 101 kPa | 1.239

C1CCC2=[NH+]CCCN2CC1.c1c[n-]cn1
Details | viscosity [mPa·s]
298.15 K, 100 kPa | 34.34

C[n+]1ccn(CCO)c1.O=S(=O)([O-])C(F)(F)C(F)(F)C(F)(F)C(F)(F)F
101 kPa
Details | viscosity [mPa·s]
298.15 K | 831.6
308.15 K | 411.4
318.15 K | 224

C[Si]1(C)O[Si](C)(C)O[Si](C)(C)O[Si](C)(C)O1
viscosity [mPa·s]
Details | 298.15 K | 308.15 K | 318.15 K
101 kPa | 2.19 | 1.806 | 1.514
103 kPa | 2.068 | 1.71 | 1.435

ClCCCl
Details | viscosity
293.15 K, 101 kPa | 0.8397 mPa·s
298 K, 101.33 kPa | 0.77 mPa·s
303 K, 101.33 kPa | 0.722 mPa·s
303.15 K, 101.3 kPa | 0.73 mPa·s
303.15 K, 101.33 kPa | 0.7295 mPa·s and 0.7295 mPa·s
308.15 K, 100 kPa | 0.682 mPa·s
308.15 K, 101 kPa | 0.6929 mPa·s
313 K, 101.33 kPa | 0.639 mPa·s
323 K, 101.33 kPa | 0.573 mPa·s
323.15 K, 101 kPa | 0.5724 mPa·s

CCCn1cc[n+](C)c1C.F[B-](F)(F)F
101 kPa
Details | viscosity [mPa·s]
298.15 K | 377.3
303.15 K | 271.9
308.15 K | 202
313.15 K | 152.2
318.15 K | 117.4
323.15 K | 92.29

CCNc1ccccc1
Details | viscosity
293.15 K, 101 kPa | 2.282 mPa·s
298 K, 101 kPa | 1.947 mPa·s
298 K, 101.3 kPa | 1.952 mPa·s
298.15 K, 101 kPa | 1.971 mPa·s and 1.75 mPa·s and 1.959 mPa·s
303 K, 101 kPa | 1.741 mPa·s
303 K, 101.3 kPa | 1.71 mPa·s
303.15 K, 100 kPa | 1.742 mPa·s
308 K, 101 kPa | 1.549 mPa·s
308 K, 101.3 kPa | 1.559 mPa·s
308.15 K, 101.33 kPa | 1.5 mPa·s
313 K, 101 kPa | 1.392 mPa·s
313 K, 101.3 kPa | 1.389 mPa·s
313.15 K, 101 kPa | 1.405 mPa·s and 1.391 mPa·s and 1.34 mPa·s
318 K, 101 kPa | 1.263 mPa·s
318 K, 101.3 kPa | 1.251 mPa·s
318.15 K, 101 kPa | 1.264 mPa·s
323.15 K, 101 kPa | 1.146 mPa·s and 1.07 mPa·s and 1.124 mPa·s

O=S(=O)(O)O
101 kPa
Details | viscosity [mPa·s]
293.15 K | 28.7
313.15 K | 16
323.15 K | 12.5

CCC[N+](C)(C)C.O=S(=O)([N-]S(=O)(=O)C(F)(F)F)C(F)(F)F
101.3 kPa
Details | viscosity [mPa·s]
293.15 K | 102
298.15 K | 79.4
303.15 K | 63.2
308.15 K | 51.1
313.15 K | 42
318.15 K | 35
323.15 K | 29.5

CCCCCC[n+]1ccn(C)c1.[I-]
101 kPa
Details | viscosity [mPa·s]
293.15 K | 2633
298.15 K | 1742
303.15 K | 1175
308.15 K | 801.8
313.15 K | 563.5
318.15 K | 404.7
323.15 K | 278.8

ClCCl
Details | viscosity
293.15 K, 101 kPa | 0.428 mPa·s
298 K, 101 kPa | 0.433 mPa·s
298.15 K, 101.33 kPa | 0.38 mPa·s and 0.406 mPa·s and 0.401 mPa·s
303.15 K, 101.3 kPa | 0.394 mPa·s
303.15 K, 101.33 kPa | 0.369 mPa·s
308.15 K, 101.33 kPa | 0.362 mPa·s

C1CCC2=[NH+]CCCN2CC1.c1c[n-]cn1 + CS(C)=O
[1], 298.15 K, 100 kPa
Details | viscosity [mPa·s]
x1 = 0.0998 | 3.113
x1 = 0.1996 | 4.415
x1 = 0.2995 | 6.054
x1 = 0.3994 | 8.104
x1 = 0.4994 | 10.52
x1 = 0.5994 | 13.65
x1 = 0.6995 | 17.39
x1 = 0.7996 | 22.07
x1 = 0.8998 | 27.44

ClCCl + CC(C)O
[1], 298.15 K, 101 kPa
Details | viscosity [mPa·s]
x2 = 0.05 | 0.425
x2 = 0.0992 | 0.435
x2 = 0.1 | 0.433
x2 = 0.15 | 0.444
x2 = 0.2 | 0.458
x2 = 0.2021 | 0.457
x2 = 0.25 | 0.474
x2 = 0.299 | 0.491
x2 = 0.3 | 0.494
x2 = 0.35 | 0.518
x2 = 0.3974 | 0.548
x2 = 0.4 | 0.547
x2 = 0.45 | 0.583
x2 = 0.5 | 0.626
x2 = 0.55 | 0.679
x2 = 0.552 | 0.68
x2 = 0.5957 | 0.74
x2 = 0.6 | 0.744
x2 = 0.65 | 0.823
x2 = 0.6514 | 0.825
x2 = 0.7 | 0.917
x2 = 0.75 | 1.031
x2 = 0.8 | 1.167
x2 = 0.8003 | 1.16
x2 = 0.85 | 1.327
x2 = 0.8515 | 1.321
x2 = 0.897 | 1.515
x2 = 0.9 | 1.516
x2 = 0.924 | 1.619
x2 = 0.9482 | 1.742
x2 = 0.95 | 1.738
x2 = 0.975 | 1.912

CCNc1ccccc1 + CCC(=O)O
[1], 308.15 K, 101.33 kPa
Details | viscosity [mPa·s]
x2 = 0.1567 | 1.706
x2 = 0.2906 | 1.897
x2 = 0.4142 | 2.167
x2 = 0.5224 | 2.302
x2 = 0.6217 | 2.533
x2 = 0.7121 | 2.575
x2 = 0.7933 | 2.379
x2 = 0.8787 | 1.916
x2 = 0.9032 | 1.691
x2 = 0.9363 | 1.412
x2 = 0.9694 | 1.113
